Melting point and pest or weed control data for 23 compounds are collected here from patent publication US7166621B2, “Pyridyloxyalkanoic acid amide derivatives useful as fungicides” (priority 2001, dated 2007).

Data set [1] concerns Phytophthora infestans. The data set is described as follows: whole plant or invertebrate. The data set is classed as in vivo. Particulars: in Solanum lycopersicum, foliar, 96 h, read-out: control of Phytophthora infestans.
For data set [2], the system named is Plasmopara viticola. Nature of the data set: Leaf disk assay, downy mildew of grapevine, preventive fungicidal activity. The data set is classed as in vivo. Conditions: foliar, 168 h.
[3] abbreviates: grapevine leaf disks, preventive, assessed seven days after inoculation.

`CCC#CC(C)(C)NC(=O)C(CC)Oc1cncc(C(=O)O)c1` (centres unmarked) had a melting point of 162 to 164 °C. With `CC#CC(C)(C)NC(=O)C(CC)Oc1cncc(Br)c1` (single isomer, unassigned; (-)) [(−) isomer of Compound 13 of Table 1, (−) 2-(5-bromo-3-pyridyloxy)-N-(4-methylpent-2-yn-4-yl)butyramide], the pest or weed control at 200 ppm in data set [1] was not below 70%.

On to `CCC#CC(C)(C)NC(=O)C(CC)Oc1cncc(Cl)c1` (centres unmarked) [Compound No. 1 of Table 1, 2-(5-chloro-3-pyridyloxy)N-(2-methylhex-3-yn-2-yl)butyramide], for which the pest or weed control at 200 ppm in data set [2] (setting [3]) is not below 70%. Take `CC#CC(C)(C)NC(=O)C(CCC)Oc1cncc(Cl)c1` (centres unmarked) [Compound No. 3 of Table 1, 2-(5chloro-3-pyridyloxy)-N-(2-methylpent-3-yn-2-yl)valeramide]: the pest or weed control at 200 ppm in data set [2] (setting [3]) and in data set [1] was not below 70% in each case. In data set [2] (setting [3]), `CC#CC(C)(C)NC(=O)C(CC)Oc1cncc(Cl)c1` (centres unmarked) [Compound No. 8 of Table 1, 2-(5-chloro-3-pyridyloxy)-N-(2-methylpent-3-yn-2-yl)butyramide] yielded a pest or weed control at 200 ppm not below 70%. Still for that read-out and setting: the same measure for `CC#CC(C)(C)N(C)C(=O)C(CC)Oc1cncc(Cl)c1` (centres unmarked) [Compound No. 10 of Table 1, 2-(5-chloro-3-pyridyloxy)-N-methyl-N-(2-methylpent-3-yn-2-yl)butyramide]: not below 70%.

With `CC#CC(C)(C)NC(=O)Cc1ccccc1Oc1cncc(Cl)c1` [Compound No. 11 of Table 1, 2-(5-chloro-3-pyridyloxy)-N-(2-methylpent-3-yn-2-yl)phenylacetamide], in data set [1], the pest or weed control at 200 ppm is not below 70%. In the case of `CC#CC(C)(C)NC(=O)C(CC)Oc1cncc(Br)c1` (centres unmarked) [Compound No. 13 of Table 1, 2-(5-bromo-3-pyridyloxy)-N-(2-methylpent-3-yn-2-yl)butyramide], the pest or weed control at 200 ppm in data set [2] (setting [3]) was not below 70%. On to `CCC#CC(C)(C)NC(=O)C(CC)Oc1cncc(Br)c1` (centres unmarked) [Compound No. 14 of Table 1, 2-(5-bromo-3-pyridyloxy)-N-(2-methylhex-3-yn-2-yl)butyramide], for which the pest or weed control at 200 ppm in data set [2] (setting [3]) was not below 70%. `CCC#CC(C)(C)NC(=O)C(CC)Oc1cncc(C(=O)N(C(C)C)C(C)C)c1` (centres unmarked) [Compound No. 15 of Table 1, 2-(5-(N,N-diisopropylaminocarbonyl)-3-pyridyloxy)-N-(5-methylhex-3-yn-5-yl)butyramide]: the pest or weed control at 200 ppm in data set [2] (setting [3]) and in data set [1] was not below 70% in each case. Take `CC#CC(C)(C)NC(=O)C(COC)Oc1cncc(Cl)c1` (centres unmarked) [Compound No. 21 of Table 1, 2-(5-chloro-3-pyridyloxy)-N-(4-methylpent-2-yn-4-yl)-3-methoxypropionamide]: the pest or weed control at 200 ppm in data set [2] was not below 70%. Regarding `CCC(Oc1cncc(Cl)c1)C(=O)NC(C#CC(C)C)OC` (centres unmarked) [Compound No. 49 of Table 1, 2-(5-chloro-3-pyridyloxy)-N-(1-methoxy-4-methylpent-2-ynyl)butyramide], the pest or weed control at 200 ppm in data set [2] was not below 70%. `CCCC#CC(C)(C)NC(=O)C(CC)Oc1cncc(Cl)c1` (centres unmarked) [Compound No. 120 of Table 1, 2-(5-chloro-3-pyridyloxy)-N-(6-methylhept-4-yn-6-yl)butyramide] registered a melting point of 70 to 71 °C. Besides, the pest or weed control at 200 ppm in data set [2] (setting [3]) is not below 70%.

Regarding `CCCC#CC(C)(C)NC(=O)C(CC)Oc1cncc(Br)c1` (centres unmarked) [Compound No. 128 of Table 1, 2-(5-bromo-3-pyridyloxy)-N-(6-methylhept4-yn-6-yl)butyramide], the pest or weed control at 200 ppm in data set [2] (setting [3]) and in data set [1] was not below 70% each time. In the case of `CC#CC(C)(CC)NC(=O)C(CC)Oc1cncc(Cl)c1` (centres unmarked) [Compound No. 136 of Table 1, 2-(5chloro-3-pyridyloxy)-N-(4methylhex-2-yn-4-yl)butyramide], the pest or weed control at 200 ppm in data set [2] (setting [3]) was not below 70%.

For `CC#CC(C)(C)NC(=O)C(CC)Oc1cnc(Cl)c(Cl)c1` (centres unmarked) [Compound No. 247 of Table 1, 2-(5,6-dichloro-3-pyridyloxy)-N-(4-methylpent-2-yn-4-yl)butyramide], in data set [2], the pest or weed control at 200 ppm is not below 70%. Same read-out and setting: the same measure for `CCC(Oc1cnc(Cl)c(Cl)c1)C(=O)NC(C)(C)C#CCOC` (centres unmarked) [Compound No. 259 of Table 1, 2-(5,6-dichloro-3-pyridyloxy)-N-(1-methoxy-4-methylpent-2-yn-4-yl)butyramide]: not below 70%.

In the case of `CC#CC(C)(C)NC(=O)C(CC)Oc1cncc(Oc2ccccc2)c1SC` (centres unmarked) [Compound No. 263 of Table 1, 2-(4-methylthio-5-phenoxy-3-pyridyloxy)-N-(4-methylpent-2-yn-4-yl)butyramide], the pest or weed control at 200 ppm in data set [2] and in data set [1] was not below 70% throughout.

Consider `CC#CC(C)(C)NC(=O)C(CC)Oc1cncc(C(C)=O)c1` (centres unmarked) [Compound No. 326 of Table 1, 2-(5-acetyl-3-pyridyloxy)-N-(4-methylpent-2-yn-4-yl)butyramide], for which the pest or weed control at 200 ppm in data set [1] is not below 70%. With `CC#CC(C)(C)NC(=O)C(CC)Oc1cncc(C#N)c1` (centres unmarked) [Compound No. 342 of Table 1, 2-(5-cyano-3-pyridyloxy)-N-(4-methylpent-2-yn-4-yl)butyramide], the pest or weed control at 200 ppm in data set [2] and in data set [1] was not below 70% each time. `C#Cc1cncc(OC(CC)C(=O)NC(C)(C)C#CC)c1` (centres unmarked) [Compound No. 358 of Table 1, 2-(5-ethynyl-3-pyridyloxy)-N-(4-methylpent-2-yn-4-yl)butyramide] had a pest or weed control at 200 ppm in data set [2] not below 70%. Consider `C=Cc1cncc(OC(CC)C(=O)NC(C)(C)C#CC)c1` (centres unmarked) [Compound No. 374 of Table 1, 2-(5-ethenyl-3-pyridyloxy)-N-(4-methylpent-2-yn-4-yl)butyramide], for which, in data set [1], the pest or weed control at 200 ppm was not below 70%. On the same count and under the same terms, under `C=C(OCC)c1cncc(OC(CC)C(=O)NC(C)(C)C#CC)c1` (centres unmarked) [Compound No. 378 of Table 1, 2-[5-(1-ethoxyethen-1-yl)-3-pyridyloxy]-N-(4-methylpent-2-yn-4-yl)butyramide] stands not below 70%.
